From publication PMC10439133, “Biosynthesis of ansamitocin P-3 incurs stress on the producing strain Actinosynnema pretiosum at multiple targets” (Communications Biology, 2023)

Key:
[1] = molecular target: T1, deoxythymidine diphosphate glucose-4,6-dehydratase (dTGD) (Actinosynnema pretiosum, UniProt A0A290ZDY1); assay: SPR (Biacore 8K, CM5 chip); also enzyme inhibition with KI =[…]; format: binding
T1 construct: gene rfbB; recombinant His-tagged, from pET30a in E. coli BL21(DE3)
T1 sequence (A0A290ZDY1 1-330): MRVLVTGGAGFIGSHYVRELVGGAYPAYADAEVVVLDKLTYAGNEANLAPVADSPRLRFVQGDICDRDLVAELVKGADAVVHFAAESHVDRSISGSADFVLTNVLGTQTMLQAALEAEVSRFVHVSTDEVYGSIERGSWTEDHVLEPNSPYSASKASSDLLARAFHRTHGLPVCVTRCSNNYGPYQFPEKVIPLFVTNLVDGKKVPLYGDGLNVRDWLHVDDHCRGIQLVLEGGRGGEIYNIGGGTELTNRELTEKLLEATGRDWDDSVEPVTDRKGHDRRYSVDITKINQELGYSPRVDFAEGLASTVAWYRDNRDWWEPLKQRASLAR

[2] = molecular target: T2, flavin-dependent thymidylate synthase (FDTS) (Actinosynnema pretiosum, UniProt A0A290ZCH3); assay: SPR (Biacore 8K, CM5 chip); also NADPH oxidase inhibition with KI =[…]; format: binding
T2 construct: gene thyX; recombinant His-tagged, from pET30a in E. coli BL21(DE3)
T2 sequence (A0A290ZCH3 1-250): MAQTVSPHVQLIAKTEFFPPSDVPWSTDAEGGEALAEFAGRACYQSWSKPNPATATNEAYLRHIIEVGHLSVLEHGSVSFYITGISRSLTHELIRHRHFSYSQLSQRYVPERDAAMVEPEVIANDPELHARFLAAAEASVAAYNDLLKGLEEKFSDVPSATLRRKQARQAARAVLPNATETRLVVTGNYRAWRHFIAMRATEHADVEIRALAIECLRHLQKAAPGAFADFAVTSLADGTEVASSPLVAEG

COc1cc2cc(c1Cl)N(C)C(=O)C[C@H](OC(=O)C(C)C)[C@]1(C)O[C@H]1[C@H](C)[C@@H]1C[C@@](O)(NC(=O)O1)[C@H](OC)/C=C/C=C(\C)C2 [AP-3, ansamitocin P-3]
Kd [1]: 360 µM
Kd [2]: 66.5 µM
